Data taken from patent US20260022142A1, “MACROCYCLIC IMMUNOMODULATORS” (Bristol-Myers Squibb Company, priority 2022, published 2026).
Numbered stars: 1 amine (or outer) side, 2 acyl side, 3 side chain; on linkers, the order of the positions; unused ones are H or OH. Bridge positions count the residues as written; N and C are the ends. Square brackets hold non-standard residues; d marks the D form. Peptide text beside a SMILES is read from it. * marks the point of attachment. Phe(3-CF3) = N[C@@H](Cc1cccc(C(F)(F)F)c1)C(=O)O; Ala(morpholin-4-yl) = N[C@@H](CN1CCOCC1)C(=O)O; Phe(4-COOH) = N[C@@H](Cc1ccc(C(=O)O)cc1)C(=O)O; Bip = N[C@@H](Cc1ccc(-c2ccccc2)cc1)C(=O)O; NH(CH2)14COOH = O=C(O)CCCCCCCCCCCCCCN*; Phe(3-Me) = Cc1cccc(C[C@H](N)C(=O)O)c1; γGlu = O=C(O)[C@H](CCC(=O)[*:2])N[*:1]; His(τ-Me) = Cn1cnc(C[C@H](N)C(=O)O)c1; NH(CH2)12COOH = O=C(O)CCCCCCCCCCCCN*; Val(3-OH) = CC(C)(O)[C@H](N)C(=O)O; Val(3-F) = CC(C)(F)[C@H](N)C(=O)O; Cha = N[C@@H](CC1CCCCC1)C(=O)O; Cit = NC(=O)NCCC[C@H](N)C(=O)O; PEG4 = NCCOCCOCCOCCOCCC(=O)O; Dap(Me) = CNC[C@H](N)C(=O)O; Carboxymethyl = O=C(O)C*; Orn = NCCC[C@H](N)C(=O)O; Aun = NCCCCCCCCCCC(=O)O; Dab = NCC[C@H](N)C(=O)O; Dap = NC[C@H](N)C(=O)O; AEEA = NCCOCCOCC(=O)O

Molecular target: T1, PD-1/PD-L1 interaction (PE-labeled human PD-L1-Ig binding to Jurkat cell line over-expressing human PD-1) (Homo sapiens, UniProt Q15116)
T1 construct: expressed in transfected cells; host or cells: Jurkat
T1 sequence (Q15116 25-288): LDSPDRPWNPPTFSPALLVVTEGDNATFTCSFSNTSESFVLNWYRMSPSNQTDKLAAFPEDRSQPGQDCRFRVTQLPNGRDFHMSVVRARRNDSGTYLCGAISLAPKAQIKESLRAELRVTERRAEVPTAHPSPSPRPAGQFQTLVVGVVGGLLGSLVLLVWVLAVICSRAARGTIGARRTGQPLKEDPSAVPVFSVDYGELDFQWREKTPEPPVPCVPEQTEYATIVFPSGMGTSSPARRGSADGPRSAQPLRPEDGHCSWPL
Experiment: Jurkat-PD-1 Cell Binding High-Content Screening Assay (CBA)
Assay type: cell-based
Conditions: Jurkat cell line over-expressing human PD-1; PE-labeled PD-L1-Ig 20 nM final; read-out: Jurkat hPD1-PDL1 IC50
Summary of the method: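 First, compound is added to PD-1-expressing Jurkat cells in serum-containing DMEM and left 2 h at 37° C. Next, PE-conjugated PD-L1-Ig is introduced at 20 nM final concentration for 1 hour. Finally, cells are fixed in 4% paraformaldehyde with Hoechst 33342, washed and imaged.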

SMILES | IC50
Cc1cccc(C[C@@H]2NC(=O)[C@H](CC(=O)O)NC(=O)[C@H](Cc3ccc(OCC(=O)O)cc3)NC(=O)[C@H](Cc3cn(C)cn3)NC(=O)CSC[C@@H](C(=O)N[C@@H](CCN)C(=O)NCCCCCCCCCCC(=O)O)NC(=O)[C@H](CCC(N)=O)NC(=O)[C@H](C(C)(C)O)NC(=O)[C@H](CC3CCCCC3)NC(=O)[C@H](CCN)NC(=O)[C@@H](CC(C)C)NC(=O)[C@H](CCCN)NC(=O)[C@H](Cc3ccc(OCC(=O)O)cc3)NC(=O)[C@H](Cc3ccc(-c4ccccc4)cc3)NC(=O)[C@H](Cc3ccc(OCC(=O)O)cc3)NC2=O)c1 [Compound 2155] ({CH2CO}-[His(τ-Me)]Y(Carboxymethyl)D[Phe(3-Me)]Y(Carboxymethyl)[Bip]Y(Carboxymethyl)[Orn][dL][Dab][Cha][Val(3-OH)]QC[Dab][Aun]-OH; thioether N-14) | 19.4 nM
Cc1cccc(C[C@@H]2NC(=O)[C@H](CC(=O)O)NC(=O)[C@H](Cc3ccc(OCC(=O)O)cc3)NC(=O)[C@H](CN)NC(=O)CSC[C@@H](C(=O)N[C@@H](CCN)C(=O)NCCOCCOCC(=O)NCCCCCCCCCCC(=O)O)NC(=O)[C@H](CN)NC(=O)[C@H](C(C)C)NC(=O)[C@H](CC3CCCCC3)NC(=O)[C@H](CCN)NC(=O)[C@@H](CC(C)C)NC(=O)[C@H](CCCN)NC(=O)[C@H](C(C)C)NC(=O)[C@H](Cc3ccc(-c4ccccc4)cc3)NC(=O)[C@H](C(C)C)NC2=O)c1 [Compound 2550] ({CH2CO}-[Dap]Y(Carboxymethyl)D[Phe(3-Me)]V[Bip]V[Orn][dL][Dab][Cha]V[Dap]C[Dab][AEEA][Aun]-OH; thioether N-14) | 8 nM
Cc1cccc(C[C@@H]2NC(=O)[C@H](CC(=O)O)NC(=O)[C@H](Cc3ccc(C(=O)O)cc3)NC(=O)[C@H](CCCNC(=N)N)NC(=O)CSC[C@@H](C(=O)N[C@@H](CCN)C(=O)NCCCCCCCCCCC(=O)O)NC(=O)[C@H]([C@@H](C)O)NC(=O)[C@H](C(C)C)NC(=O)[C@H](CC3CCCCC3)NC(=O)[C@H](CCN)NC(=O)[C@@H](CC(C)C)NC(=O)[C@H](CCCN)NC(=O)[C@H](Cc3ccc(OCC(=O)O)cc3)NC(=O)[C@H](Cc3ccc(-c4ccccc4)cc3)NC(=O)[C@H](Cc3ccc(OCC(=O)O)cc3)NC2=O)c1 [Compound 2166] ({CH2CO}-R[Phe(4-COOH)]D[Phe(3-Me)]Y(Carboxymethyl)[Bip]Y(Carboxymethyl)[Orn][dL][Dab][Cha]VTC[Dab][Aun]-OH; thioether N-14) | 11.8 nM
Cc1cccc(C[C@@H]2NC(=O)[C@H](CC(=O)O)NC(=O)[C@H](Cc3ccc(OCC(=O)O)cc3)NC(=O)[C@H](CCCNC(=N)N)NC(=O)CSC[C@@H](C(=O)N[C@@H](CCN)C(=O)NCCCCCCCCCCC(=O)O)NC(=O)[C@H](CCC(N)=O)NC(=O)[C@H](C(C)(C)F)NC(=O)[C@H](CC3CCCCC3)NC(=O)[C@H](CCN)NC(=O)[C@@H](CC(C)C)NC(=O)[C@H](CCCN)NC(=O)[C@H](Cc3ccc(OCC(=O)O)cc3)NC(=O)[C@H](Cc3ccc(-c4ccccc4)cc3)NC(=O)[C@H](Cc3ccc(OCC(=O)O)cc3)NC2=O)c1 [Compound 2145] ({CH2CO}-RY(Carboxymethyl)D[Phe(3-Me)]Y(Carboxymethyl)[Bip]Y(Carboxymethyl)[Orn][dL][Dab][Cha][Val(3-F)]QC[Dab][Aun]-OH; thioether N-14) | 2.1 nM
Cc1cccc(C[C@@H]2NC(=O)[C@H](CC(=O)O)NC(=O)[C@H](Cc3ccc(O)cc3)NC(=O)[C@H](CCCNC(=N)N)NC(=O)CSC[C@@H](C(=O)N[C@@H](CCN)C(=O)NCCOCCOCC(=O)NCCCCCCCCCCC(=O)O)NC(=O)[C@H](CO)NC(=O)[C@H](C(C)(C)O)NC(=O)[C@H](CC3CCCCC3)NC(=O)[C@H](CCN)NC(=O)[C@@H](CC(C)C)NC(=O)[C@H](CCCN)NC(=O)[C@H](Cc3ccc(OCC(=O)O)cc3)NC(=O)[C@H](Cc3ccc(-c4ccccc4)cc3)NC(=O)[C@H](Cc3ccc(OCC(=O)O)cc3)NC2=O)c1 [Compound 2248] ({CH2CO}-RYD[Phe(3-Me)]Y(Carboxymethyl)[Bip]Y(Carboxymethyl)[Orn][dL][Dab][Cha][Val(3-OH)]SC[Dab][AEEA][Aun]-OH; thioether N-14) | 5.1 nM

Other lines, results leading:

IC50 | SMILES
74.9 nM | CC(C)C[C@H]1NC(=O)[C@H](CCN)NC(=O)[C@H](CCCNC(N)=O)NC(=O)[C@H](Cc2ccc(-c3ccccc3)cc2)NC(=O)[C@H](C(C)C)NC(=O)[C@H](Cc2c[nH]c3ccccc23)NC(=O)[C@H](CC(=O)O)NC(=O)[C@H](Cc2ccc(OCC(=O)O)cc2)NC(=O)[C@H](CCCNC(=N)N)NC(=O)CSC[C@@H](C(=O)N[C@@H](CCCN)C(=O)NCCCCCCCCCCC(=O)O)NC(=O)[C@@H](CCC(N)=O)NC(=O)[C@H](C(C)C)NC(=O)[C@H](CC2CCCCC2)NC(=O)[C@H](CCN)NC1=O [Compound 2816] ({CH2CO}-RY(Carboxymethyl)DWV[Bip][Cit][Dab][dL][Dab][Cha]V[dQ]C[Orn][Aun]-OH; thioether N-14)
135 nM | CC(C)C[C@H]1NC(=O)[C@H](CCCN)NC(=O)[C@H](Cc2ccc(C(=O)O)cc2)NC(=O)[C@H](Cc2ccc(-c3ccccc3)cc2)NC(=O)[C@H](Cc2ccc(C(=O)O)cc2)NC(=O)[C@H](Cc2cccc(C(F)(F)F)c2)NC(=O)[C@H](CC(=O)O)NC(=O)[C@H](Cc2ccc(OCC(=O)O)cc2)NC(=O)[C@H](CN2CCOCC2)NC(=O)CSC[C@@H](C(=O)N[C@@H](CCN)C(=O)NCCOCCOCCOCCOCCC(=O)NCCCCCCCCCCCCCCC(=O)O)NC(=O)[C@H](CO)NC(=O)[C@H](C(C)(C)O)NC(=O)[C@H](CC2CCCCC2)NC(=O)[C@H](CCN)NC1=O [Compound 2917] ({CH2CO}-[Ala(morpholin-4-yl)]Y(Carboxymethyl)D[Phe(3-CF3)][Phe(4-COOH)][Bip][Phe(4-COOH)][Orn][dL][Dab][Cha][Val(3-OH)]SC[Dab][PEG4]-{NH(CH2)14COOH}; thioether N-14)
99.1 nM | Cc1cccc(C[C@@H]2NC(=O)[C@H](CC(=O)O)NC(=O)[C@H](Cc3ccc(OCC(=O)O)cc3)NC(=O)[C@H](CN)NC(=O)CSC[C@@H](C(=O)N[C@@H](CCN)C(=O)NCCCCCCCCCCC(=O)O)NC(=O)[C@H](Cc3ccc(O)cc3)NC(=O)[C@H](C(C)C)NC(=O)[C@H](CC(C)C)NC(=O)[C@H](CCN)NC(=O)[C@@H](CC(C)C)NC(=O)[C@H](CCCN)NC(=O)[C@H](Cc3ccc(O)cc3)NC(=O)[C@H](Cc3ccc(-c4ccccc4)cc3)NC(=O)[C@H](C(C)C)NC2=O)c1 [Compound 2758] ({CH2CO}-[Dap]Y(Carboxymethyl)D[Phe(3-Me)]V[Bip]Y[Orn][dL][Dab]LVYC[Dab][Aun]-OH; thioether N-14)
38.4 nM | CNC[C@@H]1NC(=O)CSC[C@@H](C(=O)N[C@@H](CCN)C(=O)NCCOCCOCC(=O)N[C@@H](CCC(=O)NCCOCCOCC(=O)NCCCCCCCCCCCCC(=O)O)C(=O)O)NC(=O)[C@H](CO)NC(=O)[C@H](C(C)(C)O)NC(=O)[C@H](CC2CCCCC2)NC(=O)[C@H](CCN)NC(=O)[C@@H](CC(C)C)NC(=O)[C@H](CCCN)NC(=O)[C@H](Cc2ccc(OCC(=O)O)cc2)NC(=O)[C@H](Cc2ccc(-c3ccccc3)cc2)NC(=O)[C@H](Cc2ccc(OCC(=O)O)cc2)NC(=O)[C@H](Cc2cccc(C(F)(F)F)c2)NC(=O)[C@H](CC(=O)O)NC(=O)[C@H](Cc2ccc(OCC(=O)O)cc2)NC1=O [Compound 3905] ({CH2CO}-[Dap(Me)]Y(Carboxymethyl)D[Phe(3-CF3)]Y(Carboxymethyl)[Bip]Y(Carboxymethyl)[Orn][dL][Dab][Cha][Val(3-OH)]SC[Dab][AEEA][γGlu][AEEA]-{NH(CH2)12COOH}; thioether N-14)
20 nM | Cc1cccc(C[C@@H]2NC(=O)[C@H](CC(=O)O)NC(=O)[C@H](Cc3ccc(OCC(=O)O)cc3)NC(=O)[C@H](CCCNC(=N)N)NC(=O)CSC[C@@H](C(=O)N[C@@H](CCCN)C(=O)NCCCCCCCCCCC(=O)O)NC(=O)[C@@H](CCC(N)=O)NC(=O)[C@H](C(C)C)NC(=O)[C@H](CC3CCCCC3)NC(=O)[C@H](CCN)NC(=O)[C@@H](CC(C)C)NC(=O)[C@H](CCN)NC(=O)[C@H](CCCNC(N)=O)NC(=O)[C@H](Cc3ccc(-c4ccccc4)cc3)NC(=O)[C@H](C(C)C)NC2=O)c1 [Compound 2799] ({CH2CO}-RY(Carboxymethyl)D[Phe(3-Me)]V[Bip][Cit][Dab][dL][Dab][Cha]V[dQ]C[Orn][Aun]-OH; thioether N-14)
8.9 nM | Cc1cccc(C[C@@H]2NC(=O)[C@H](CC(=O)O)NC(=O)[C@H](Cc3ccc(OCC(=O)O)cc3)NC(=O)[C@H](CCCNC(=N)N)NC(=O)CSC[C@@H](C(=O)N[C@@H](CCN)C(=O)NCCCCCCCCCCC(=O)O)NC(=O)[C@H](CCC(=O)O)NC(=O)[C@H](C(C)C)NC(=O)[C@H](CC3CCCCC3)NC(=O)[C@H](CCN)NC(=O)[C@@H](CC(C)C)NC(=O)[C@H](CCN)NC(=O)[C@H](CCCNC(N)=O)NC(=O)[C@H](Cc3ccc(-c4ccccc4)cc3)NC(=O)[C@H](C(C)C)NC2=O)c1 [Compound 2778] ({CH2CO}-RY(Carboxymethyl)D[Phe(3-Me)]V[Bip][Cit][Dab][dL][Dab][Cha]VEC[Dab][Aun]-OH; thioether N-14)
11 nM | Cc1cccc(C[C@@H]2NC(=O)[C@H](CC(=O)O)NC(=O)[C@H](Cc3ccc(OCC(=O)O)cc3)NC(=O)[C@H](CC(N)=O)NC(=O)CSC[C@@H](C(=O)N[C@@H](CCN)C(=O)NCCCCCCCCCCC(=O)O)NC(=O)[C@H](CCCN)NC(=O)[C@H](C(C)C)NC(=O)[C@H](CC3CCCCC3)NC(=O)[C@H](CCN)NC(=O)[C@@H](CC(C)C)NC(=O)[C@H](CCCN)NC(=O)[C@H](Cc3ccc(O)cc3)NC(=O)[C@H](Cc3ccc(-c4ccccc4)cc3)NC(=O)[C@H](C(C)C)NC2=O)c1 [Compound 2698] ({CH2CO}-NY(Carboxymethyl)D[Phe(3-Me)]V[Bip]Y[Orn][dL][Dab][Cha]V[Orn]C[Dab][Aun]-OH; thioether N-14)
